Results published in patent US20240199754A1 (VANCOUVER BIOTECH LTD., priority 2021, published 2024).

Legend:
[1] = target: T1, N1-29 synthetic oligopeptide of GnRH receptor from humans (Homo sapiens, UniProt P30968); test: Comparative binding ELISA on well-coated N1-29 oligopeptide (human); conditions: vs unrelated RP215 negative control
T1 sequence (P30968 1-30): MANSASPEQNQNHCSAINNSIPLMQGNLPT
Protocol: (§1) Therefore, comparative binding ELISA studies were performed to estimate the relative binding affinity between GHR-106 and microwell-coated N1-29 oligopeptides derived from human, dog and rabbit, respectively. The results of such binding studies are presented and compared in FIG. 2.
(§2) Unrelated RP215 monoclonal antibody was used as the negative control for any blank subtractions. Goat anti-human IgG labeled with alkaline phosphatase was used as the second antibody for signal detection. P-nitrophenyl phosphate was used as the substrate and monitored at 405 nm and double log plot presented.

[2] = in vivo; cited from earlier work
pituitary GnRH receptor [3] = test: Proof-of-concept rabbit experiments overall (single and multi-rabbit); type: in vivo; conditions: single injection, 1 mg/kg or 3 mg/kg
Protocol: (§3) With preliminary observations in single rabbit data, large scale rabbit experiments (n≥30) including negative controls were conducted with identical protocols. […] The data generated in each experimental group were analyzed statistically. The means and standard deviations of hormone levels from rabbits in each experimental group are presented in FIGS. 6-9 and corresponding selected statistical analyses and separate comparisons with those of the negative controls are presented in Table 1 to Table 4.

[4] = test system: N1-29 peptide of dog GnRH receptor; conditions: cited from earlier work
[5] = test system: N1-29 peptide of monkey GnRH receptor; conditions: cited from earlier work
pituitary GnRH receptor [6] = test: Large scale proof of concept experiment, male rabbits (testosterone, LH); type: in vivo, rabbit
Protocol: as §3
In the case of male rabbits, the serum concentrations of reproductive hormones including LH and testosterone of ten male rabbits were monitored and measured after a single subcutaneous injection with 1 mg/kg of GHR-106 (low dosage, n=3) or 3 mg/kg of GHR-106 (high dosage, n=3) on day 1, or after no injection (negative control, n=4). Serum testosterone levels were determined and the averages (with standard deviations) were determined from day 1 to day 17, and serum LH levels were determined starting on day 1 and ending on day 13 (with standard deviations) The results of the testosterone profile are found in FIG. 6. The results of the LH profile are found in FIG. 7. Selected statistical analyses and separate comparisons with those of the negative controls for FIG. 6 and FIG. 7 are found in Table 1 and Table 2, respectively.

pituitary GnRH receptor [7] = test: Large scale proof of concept experiment, female rabbits (estradiol, LH); type: in vivo, rabbit
Protocol: as §3
Target sequence in this assay (as listed by the source): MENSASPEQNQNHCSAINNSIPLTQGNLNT
In the case of female rabbits, the serum concentrations of reproductive hormones including LH and estradiol (E2) of ten female rabbits were monitored and measured after a single subcutaneous injection with 1 mg/kg of GHR-106 (low dosage, n=3) or 3 mg/kg of GHR-106 (high dosage, n=3) on day 1, or after no injection (negative control, n=4). Serum E2 levels were determined starting on day 1 and ending on day 17, and serum LH levels were determined starting on day 1 and ending on day 13. The results of the estradiol (E2) profile are found in FIG. 8. The results of the LH profile are found in FIG. 9. Selected statistical analyses and separate comparisons with those of the negative controls for FIG. 8 and FIG. 9 are found in Table 3 and Table 4, respectively.

human cancer cells = conditions: 24 to 72 hours co-incubation with 1-10 μg/ml; cited from earlier work
[8] = test system: N1-29 synthetic oligopeptide of GnRH receptor from rabbit; test: Comparative binding ELISA on well-coated N1-29 oligopeptide (rabbit); conditions: vs unrelated RP215 negative control
Protocol: as §1, §2

pituitary GnRH receptor [9] = test: Serum LH and testosterone after single injection, single adult male rabbit; type: in vivo
Protocol: In the case of male rabbits, serum concentrations of reproductive hormones including luteinizing hormone (LH) and testosterone were monitored regularly following a single subcutaneous injection with 3 mg/kg of hGHR-106.
The serum LH and testosterone concentrations were determined, respectively, by EIA kits and plotted as a function of time during the day 1 to 30 time period.

GnRHR = target: T2, GnRHR (Homo sapiens, UniProt P30968); test: Detection of GnRHR overexpression in a reference cell line; type: cell-based; conditions: compared with four commercially available antibodies
T2 sequence (P30968 1-328): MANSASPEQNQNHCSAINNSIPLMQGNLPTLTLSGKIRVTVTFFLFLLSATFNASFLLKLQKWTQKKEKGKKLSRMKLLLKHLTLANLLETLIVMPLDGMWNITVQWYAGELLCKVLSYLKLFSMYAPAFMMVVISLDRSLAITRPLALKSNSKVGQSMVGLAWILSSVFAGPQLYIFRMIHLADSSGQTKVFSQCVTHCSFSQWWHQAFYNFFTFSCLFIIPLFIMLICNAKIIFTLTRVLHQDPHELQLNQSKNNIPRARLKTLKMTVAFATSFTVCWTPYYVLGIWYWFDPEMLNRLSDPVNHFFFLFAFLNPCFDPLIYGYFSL
Protocol: In particular, the ability of GHR-106 to detect overexpression of GnRHR in a reference cell line is tested and compared with four different commercially available antibodies.

[10] = test system: OC-3-VGH ovarian cancer cells; test: Quantitative RT-PCR gene regulation study; type: cell-based, human; conditions: quantitative RT-PCR after incubation with cancer cells
[11] = test system: N1-29 peptide of cat GnRH receptor; conditions: cited from earlier work
[12] = test system: N1-29 peptide of rabbit GnRH receptor; conditions: cited from earlier work
pituitary GnRH receptor [13] = test: Serum LH and estradiol after single injection, female rabbit; type: in vivo
Protocol: The hormonal profiles of serum luteinizing hormone (LH) and Estradiol (E2) in female rabbits were monitored upon a single injection with a 3 mg/kg dose of hGHR-106.

[14] = test system: N1-29 synthetic oligopeptide of GnRH receptor from dog; test: Comparative binding ELISA on well-coated N1-29 oligopeptide (dog); conditions: vs unrelated RP215 negative control
Protocol: as §1, §2

[15] = male rabbit, single subcutaneous injection of 1 mg/kg or 3 mg/kg
[16] = male rabbits, single injection day 1, low (1 mg/kg) or high (3 mg/kg) dosage, vs negative control
[17] = single injection day 1, low (1 mg/kg) or high (3 mg/kg) dosage, vs negative control

N1-29 peptide of rabbit GnRH receptor, sequence (as listed by the source): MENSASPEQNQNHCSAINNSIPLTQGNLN
N1-29 peptide of cat GnRH receptor, sequence (as listed by the source): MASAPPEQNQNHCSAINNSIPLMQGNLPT
N1-29 peptide of monkey GnRH receptor, sequence (as listed by the source): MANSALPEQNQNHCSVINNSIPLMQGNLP
N1-29 peptide of dog GnRH receptor, sequence (as listed by the source): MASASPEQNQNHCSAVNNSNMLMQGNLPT

## GHR-106: monoclonal antibody against N1-29 oligopeptide of human GnRH receptor; examples use humanized IgG4 form, heavy chain SEQ ID NO:7, light chain SEQ ID NO:8
[1]
  binding affinity to N1-29 peptide (ELISA, ΔOD 405 nm): comparable to one another
[2]
  half-life: 120 to 504 h
Pituitary GnRH receptor [3]
  time until hormone levels return to normal ranges: 1-3 weeks
[4]
  cross-reactivity with N1-29 peptide: cross-reacts
[5]
  cross-reactivity with N1-29 peptide: cross-reacts
Pituitary GnRH receptor [6]; [15]
  decrease of serum LH concentration, of the normal level: 80 to 90%
  decrease of serum testosterone concentration, of the normal level: 80 to 90%
  period of decreased serum LH and testosterone: seven to ten
  time until reproductive hormones returned to normal levels after the initial injection: approximately two
Pituitary GnRH receptor [6]; male rabbits, Day 3, 1 mg/kg
  t test, LH profile, neg. ctrl to 1 mg/kg: 3.579
  t test, testosterone profile, neg. ctrl to 1 mg/kg: 2.966
Pituitary GnRH receptor [6]; male rabbits, Day 3, 3 mg/kg
  t test, LH profile, neg. ctrl to 3 mg/kg: 1.474
  t test, testosterone profile, neg. ctrl to 3 mg/kg: 4.2
Pituitary GnRH receptor [6]; male rabbits, Day 5, 1 mg/kg
  t test, LH profile, neg. ctrl to 1 mg/kg: 4.698
  t test, testosterone profile, neg. ctrl to 1 mg/kg: 3.353
Pituitary GnRH receptor [6]; male rabbits, Day 5, 3 mg/kg
  t test, LH profile, neg. ctrl to 3 mg/kg: 3.596
  t test, testosterone profile, neg. ctrl to 3 mg/kg: 3.851
Pituitary GnRH receptor [6]; male rabbits, Day 7, 1 mg/kg
  t test, LH profile, neg. ctrl to 1 mg/kg: 4.126
  t test, testosterone profile, neg. ctrl to 1 mg/kg: 1.086
Pituitary GnRH receptor [6]; male rabbits, Day 7, 3 mg/kg
  t test, LH profile, neg. ctrl to 3 mg/kg: 3.62
  t test, testosterone profile, neg. ctrl to 3 mg/kg: 7.396
Pituitary GnRH receptor [6]; male rabbits, Day 9, 1 mg/kg
  t test, LH profile, neg. ctrl to 1 mg/kg: 2.936
  t test, testosterone profile, neg. ctrl to 1 mg/kg: 0.3439
Pituitary GnRH receptor [6]; male rabbits, Day 9, 3 mg/kg
  t test, LH profile, neg. ctrl to 3 mg/kg: 3.56
  t test, testosterone profile, neg. ctrl to 3 mg/kg: 0.8405
Pituitary GnRH receptor [6]; [16]
  serum LH levels: reversibly suppressed
  serum testosterone levels: reversibly suppressed
Pituitary GnRH receptor [7]; Day 3, 1 mg/kg
  t test, LH profile, neg. ctrl to 1 mg/kg: 3.93
  t test, estradiol (E2) profile, neg. ctrl to 1 mg/kg: 1.179
Pituitary GnRH receptor [7]; Day 3, 3 mg/kg
  t test, LH profile, neg. ctrl to 3 mg/kg: 6.348
  t test, estradiol (E2) profile, neg. ctrl to 3 mg/kg: 1.125
Pituitary GnRH receptor [7]; Day 5, 1 mg/kg
  t test, LH profile, neg. ctrl to 1 mg/kg: 6.556
  t test, estradiol (E2) profile, neg. ctrl to 1 mg/kg: 2.893
Pituitary GnRH receptor [7]; Day 5, 3 mg/kg
  t test, LH profile, neg. ctrl to 3 mg/kg: 5.114
  t test, estradiol (E2) profile, neg. ctrl to 3 mg/kg: 2.039
Pituitary GnRH receptor [7]; Day 7, 1 mg/kg
  t test, LH profile, neg. ctrl to 1 mg/kg: 6.018
  t test, estradiol (E2) profile, neg. ctrl to 1 mg/kg: 2.807
Pituitary GnRH receptor [7]; Day 7, 3 mg/kg
  t test, LH profile, neg. ctrl to 3 mg/kg: 4.126
  t test, estradiol (E2) profile, neg. ctrl to 3 mg/kg: 2.45
Pituitary GnRH receptor [7]; Day 9, 1 mg/kg
  t test, LH profile, neg. ctrl to 1 mg/kg: 1.1
  t test, estradiol (E2) profile, neg. ctrl to 1 mg/kg: 3.048
Pituitary GnRH receptor [7]; Day 9, 3 mg/kg
  t test, LH profile, neg. ctrl to 3 mg/kg: 4.126
  t test, estradiol (E2) profile, neg. ctrl to 3 mg/kg: 5.087
Pituitary GnRH receptor [7]; [17]
  serum LH levels: reversibly suppressed
  serum estradiol (E2) levels: reversibly suppressed
Human cancer cells
  degrees of induced apoptosis: comparable to those of the decapeptide GnRH antagonist, Antide
[8]
  binding affinity to N1-29 peptide (ELISA, ΔOD 405 nm): comparable to one another
Pituitary GnRH receptor [9]; 3 mg/kg s.c.
  duration of low LH levels: at least one to two
Pituitary GnRH receptor [9]; 3 mg/kg s.c., after 24-48 hours, from 3.5 mlU/ml
  serum LH: < 0.5 mlU/ml
Pituitary GnRH receptor [9]; 3 mg/kg s.c., end of the third week
  serum LH, stable normal range reached: 2.9-5.0 mlU/ml
Pituitary GnRH receptor [9]; 3 mg/kg single injection, first two weeks
  decrease of serum testosterone concentration: more than 80%
Pituitary GnRH receptor [9]; 3 mg/kg single injection, first two weeks, from 0.95 ng/ml
  serum testosterone concentration: ≤ 0.1 ng/mL
Pituitary GnRH receptor [9]; 3 mg/kg, day 30
  LH and testosterone hormone levels: within the normal range
GnRHR
  ability to detect overexpression of GnRHR: able to detect overexpression of GnRHR
[10]
  gene expression changes of ten regulatory genes, compared between GHR-106 and Antide: strong similarity
[11]
  cross-reactivity with N1-29 peptide: cross-reacts
[12]
  cross-reactivity with N1-29 peptide: cross-reacts
Pituitary GnRH receptor [13]; 3 mg/kg single injection, first few days, from 3 mlU/ml
  serum LH: ≤ 1 mlU/ml
Pituitary GnRH receptor [13]; 3 mg/kg single injection, until day 10, from 50 pg/ml
  serum E2 concentration: ≤ 20 pg/mL
Pituitary GnRH receptor [13]; 3 mg/kg, after day 18 and 20
  serum E2 concentration reached on recovery: 120 pg/mL
  serum LH concentration reached on recovery: 6 mIU/ml
[14]
  binding affinity to N1-29 peptide (ELISA, ΔOD 405 nm): comparable to one another
